Measured values as given in patent publication US10227350B2 (Gilead Sciences, Inc., priority 2016, dated 2019).

These molecules were tested against PI3Kβ (Homo sapiens (Human), UniProt P42338) (assay: TR-FRET enzymatic activity assay, PI3Kβ). Settings: 2× Km ATP, 2 μM PIP2, 30 minutes at 25° C., read-out: IC50-PIP-Beta.
Type: biochemical
Summary of the method: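 Purified recombinant heterodimeric PI3Kβ; PIP3 formation read by TR-FRET as competition with fluorescent tracer for GRP-1 PH domain binding. Compounds incubated 30 min at 25 °C.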

Chain of PI3Kβ (P42338 whole entry): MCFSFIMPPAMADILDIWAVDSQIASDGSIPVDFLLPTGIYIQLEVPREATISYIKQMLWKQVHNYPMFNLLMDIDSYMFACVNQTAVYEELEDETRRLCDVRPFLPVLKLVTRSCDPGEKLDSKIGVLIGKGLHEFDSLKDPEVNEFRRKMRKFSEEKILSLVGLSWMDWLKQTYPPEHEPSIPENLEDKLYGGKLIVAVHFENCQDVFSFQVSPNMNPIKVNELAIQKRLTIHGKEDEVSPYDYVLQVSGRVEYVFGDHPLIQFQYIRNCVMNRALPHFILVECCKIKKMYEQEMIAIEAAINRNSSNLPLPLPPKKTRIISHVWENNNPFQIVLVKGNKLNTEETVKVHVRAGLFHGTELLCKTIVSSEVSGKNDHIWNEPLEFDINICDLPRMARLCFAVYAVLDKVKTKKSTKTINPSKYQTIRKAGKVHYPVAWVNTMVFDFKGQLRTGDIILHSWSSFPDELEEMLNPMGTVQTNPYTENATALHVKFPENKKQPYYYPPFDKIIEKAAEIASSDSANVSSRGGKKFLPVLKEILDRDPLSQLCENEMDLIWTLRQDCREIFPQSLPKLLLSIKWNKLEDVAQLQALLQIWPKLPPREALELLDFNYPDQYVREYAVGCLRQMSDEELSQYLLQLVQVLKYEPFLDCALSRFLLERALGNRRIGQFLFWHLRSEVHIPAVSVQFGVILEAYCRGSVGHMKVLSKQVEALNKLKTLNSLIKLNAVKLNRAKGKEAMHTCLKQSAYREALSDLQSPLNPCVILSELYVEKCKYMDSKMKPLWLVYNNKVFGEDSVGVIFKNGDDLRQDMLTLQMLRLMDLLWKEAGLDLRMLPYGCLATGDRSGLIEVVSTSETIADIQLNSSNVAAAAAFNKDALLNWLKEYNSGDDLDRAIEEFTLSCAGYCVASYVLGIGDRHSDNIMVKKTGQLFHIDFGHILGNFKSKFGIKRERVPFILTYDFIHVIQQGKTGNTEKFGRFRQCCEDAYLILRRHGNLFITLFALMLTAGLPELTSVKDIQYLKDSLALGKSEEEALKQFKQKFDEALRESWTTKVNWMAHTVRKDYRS
Chain of PI3Kβ (P27986 whole entry partner): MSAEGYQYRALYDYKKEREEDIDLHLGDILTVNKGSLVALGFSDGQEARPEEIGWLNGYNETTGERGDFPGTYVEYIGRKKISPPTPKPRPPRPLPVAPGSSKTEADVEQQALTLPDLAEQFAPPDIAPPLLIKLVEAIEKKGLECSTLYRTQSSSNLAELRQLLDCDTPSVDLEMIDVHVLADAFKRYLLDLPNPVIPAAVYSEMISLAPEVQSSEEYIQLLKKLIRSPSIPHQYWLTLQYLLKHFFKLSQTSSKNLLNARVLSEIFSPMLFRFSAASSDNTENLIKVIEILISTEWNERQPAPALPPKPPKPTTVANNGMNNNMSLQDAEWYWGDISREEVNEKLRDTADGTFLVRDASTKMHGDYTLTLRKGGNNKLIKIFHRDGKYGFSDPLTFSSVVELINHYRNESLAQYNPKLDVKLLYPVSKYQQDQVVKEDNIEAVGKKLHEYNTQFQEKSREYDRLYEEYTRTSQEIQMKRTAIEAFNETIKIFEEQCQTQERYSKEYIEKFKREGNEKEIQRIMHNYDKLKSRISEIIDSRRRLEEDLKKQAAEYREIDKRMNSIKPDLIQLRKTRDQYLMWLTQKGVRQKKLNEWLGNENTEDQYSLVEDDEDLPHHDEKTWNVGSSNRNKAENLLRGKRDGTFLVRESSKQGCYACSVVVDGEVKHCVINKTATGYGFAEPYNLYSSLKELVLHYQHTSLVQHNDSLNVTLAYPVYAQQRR

| IC50 [nM] | Structure (SMILES) |
| --- | --- |
| 1300 | Cc1nc2c(C(N)=O)cc(-c3cc(N)ncn3)cc2n1-c1ccnc2c(Cl)cccc12 [Example 21, 6-(6-aminopyrimidin-4-yl)-1-(8-chloroquinolin-4-yl)-2-methylbenzimidazole-4-carboxamide] |
| 35 | Nc1cc(-c2cc(-c3nnc[nH]3)c3nc(C4COC4)n(-c4ccnc5c(Cl)ccc(F)c45)c3c2)ccn1 [Example 68, 4-[3-(8-chloro-5-fluoroquinolin-4-yl)-2-(oxetan-3-yl)-7-(4H-1,2,4-triazol-3-yl)benzimidazol-5-yl]pyridin-2-amine] |
| 28 | Cc1nc2c(-c3nnc[nH]3)cc(-c3ccnc(C#N)c3)cc2n1-c1ccnc2c(Cl)ccc(Cl)c12 (single isomer, unassigned) [Example 122, 4-(1-(5,8-dichloroquinolin-4-yl)-2-methyl-4-(4H-1,2,4-triazol-3-yl)-1H-benzo[d]imidazol-6-yl)picolinonitrile] |
| 15 | Nc1nccc(-c2cc(-c3nnc[nH]3)c3nc(C4CC4)n(-c4ccnc5c(F)ccc(F)c45)c3c2)c1F [Example 81, 4-[2-cyclopropyl-3-(5,8-difluoroquinolin-4-yl)-7-(4H-1,2,4-triazol-3-yl)benzimidazol-5-yl]-3-fluoropyridin-2-amine] |
| 36 | CCc1nc2c(-c3nnc[nH]3)cc(-c3ccnc(N)c3)cc2n1-c1ccnc2cccc(F)c12 [Example 54, 4-[2-ethyl-3-(5-fluoroquinolin-4-yl)-7-(4H-1,2,4-triazol-3-yl)benzimidazol-5-yl]pyridin-2-amine] |
| 320 | Cc1nc2c(-c3nnc[nH]3)cc(-c3c(F)cnc(N)c3F)cc2n1-c1ccnc2c(F)ccc(F)c12 [Example 100, 4-[3-(5,8-difluoroquinolin-4-yl)-2-methyl-7-(4H-1,2,4-triazol-3-yl)benzimidazol-5-yl]-3,5-difluoropyridin-2-amine] |
| 8 | Nc1cc(-c2cc(-c3nnc[nH]3)c3nc(C4CC4)n(-c4ccnc5c(Cl)ccc(F)c45)c3c2)ccn1 [Example 62, 4-[3-(8-chloro-5-fluoroquinolin-4-yl)-2-cyclopropyl-7-(4H-1,2,4-triazol-3-yl)benzimidazol-5-yl]pyridin-2-amine] |
| 10 | Cc1nc2c(-c3nnc[nH]3)cc(-c3ccnc(N)c3)cc2n1-c1ccnc2c(Cl)cccc12 [Example 58, 4-(1-(8-chloroquinolin-4-yl)-2-methyl-4-(4H-1,2,4-triazol-3-yl)-1H-benzo[d]imidazol-6-yl)pyridin-2-amine] |
| 2 | Cc1nc2c(-c3nnc[nH]3)cc(-c3ccnc(C#N)c3)cc2n1-c1ccnc2cccc(F)c12 (single isomer, unassigned) [Example 131, 4-(1-(5-fluoroquinolin-4-yl)-2-methyl-4-(4H-1,2,4-triazol-3-yl)-1H-benzo[d]imidazol-6-yl)picolinonitrile] |
| 2 | CCc1nc2c(-c3nnc[nH]3)cc(-c3ccnc(N)c3F)cc2n1-c1ccnc2c(F)ccc(F)c12 (single isomer, unassigned) [Example 110, 4-[3-(5,8-difluoroquinolin-4-yl)-2-ethyl-7-(4H-1,2,4-triazol-3-yl)benzimidazol-5-yl]-3-fluoropyridin-2-amine] |
| 20 | Cc1nc2c(C(=O)O)cc(-c3ccnc(N)c3F)cc2n1-c1ccnc2c(F)ccc(F)c12 [Example 4, 6-(2-amino-3-fluoropyridin-4-yl)-1-(5,8-difluoroquinolin-4-yl)-2-methyl-1H-benzo[d]imidazole-4-carboxylic acid] |
| 6 | NC(=O)c1cc(-c2ccnc(N)c2F)cc2c1nc(C1CC1)n2-c1ccnc2c(Cl)ccc(F)c12 [Example 25] |
| 110 | Nc1nccc(-c2cc(-c3nnc[nH]3)c3nc(C4CC4)n(-c4ccnc5c(F)cccc45)c3c2)c1F [Example 88, 4-[2-cyclopropyl-3-(8-fluoroquinolin-4-yl)-7-(4H-1,2,4-triazol-3-yl)benzimidazol-5-yl]-3-fluoropyridin-2-amine] |
| 180 | Cc1nc2c(-c3nnc[nH]3)cc(-c3ccnc(N)c3)cc2n1-c1ccnc2cc(F)ccc12 [Example 53, 4-[3-(7-fluoroquinolin-4-yl)-2-methyl-7-(4H-1,2,4-triazol-3-yl)benzimidazol-5-yl]pyridin-2-amine] |
| 7 | Cc1nc2c(-c3nnc[nH]3)cc(-c3ccncc3)cc2n1-c1ccnc2c(Cl)cccc12 [Example 38, 8-chloro-4-[2-methyl-6-pyridin-4-yl-4-(4H-1,2,4-triazol-3-yl)benzimidazol-1-yl]quinoline] |
| 9 | COc1nccc(-c2cc(-c3nnc[nH]3)c3nc(C)n(-c4ccnc5c(F)ccc(F)c45)c3c2)n1 [Example 154, 5,8-difluoro-4-(6-(2-methoxypyrimidin-4-yl)-2-methyl-4-(4H-1,2,4-triazol-3-yl)-1H-benzo[d]imidazol-1-yl)quinoline] |
| 6 | Cc1nc2c(-c3nnc[nH]3)cc(-c3ccncc3)cc2n1-c1ccnc2c(F)ccc(F)c12 [Example 28, 5,8-difluoro-4-[2-methyl-6-pyridin-4-yl-4-(4H-1,2,4-triazol-3-yl)benzimidazol-1-yl]quinoline] |

| IC50 [nM] | Structure (SMILES) |
| --- | --- |
| 8 | Cc1cc(-c2cc(-c3nnc[nH]3)c3nc(C)n(-c4ccnc5c(F)ccc(F)c45)c3c2)ccn1 [Example 45, 5,8-difluoro-4-[2-methyl-6-(2-methylpyridin-4-yl)-4-(4H-1,2,4-triazol-3-yl)benzimidazol-1-yl]quinoline] |
| 34 | Cc1nc2c(C(=O)O)cc(-c3ccncc3)cc2n1-c1ccnc2c(Cl)cccc12 [Example 1] |
| 420 | Nc1cc(-c2cc(-c3nnc[nH]3)c3nc(C4CC4)n(-c4ccnc5c(F)cccc45)c3c2)ccn1 [Example 60, 4-[2-cyclopropyl-3-(8-fluoroquinolin-4-yl)-7-(4H-1,2,4-triazol-3-yl)benzimidazol-5-yl]pyridin-2-amine] |
| 13 | Cc1nc2c(C(=O)O)cc(-c3ccnc(N)n3)cc2n1-c1ccnc2c(Cl)cccc12 [Example 2] |
| 8 | Nc1nccc(-c2cc(-c3nnc[nH]3)c3nc(C4CC4)n(-c4ccnc5c(Cl)cccc45)c3c2)c1F [Example 79, 4-[3-(8-chloroquinolin-4-yl)-2-cyclopropyl-7-(4H-1,2,4-triazol-3-yl)benzimidazol-5-yl]-3-fluoropyridin-2-amine] |
| 62 | Cc1nc2c(C(N)=O)cc(-c3ccncc3F)cc2n1-c1ccnc2c(Cl)cccc12 [Example 14, 1-(8-chloroquinolin-4-yl)-6-(3-fluoropyridin-4-yl)-2-methylbenzimidazole-4-carboxamide] |
| 270 | Cc1nc2c(-c3nnc[nH]3)cc(-c3cc(N)ncn3)cc2n1-c1ccnc2c(Cl)cccc12 [Example 59, 6-[3-(8-chloroquinolin-4-yl)-2-methyl-7-(4H-1,2,4-triazol-3-yl)benzimidazol-5-yl]pyrimidin-4-amine] |
| 3 | Cc1nc2c(-c3nnc[nH]3)cc(-c3ccnc(N)c3F)cc2n1-c1ccnc2c(F)ccc(F)c12 [Example 75, 4-[3-(5,8-difluoroquinolin-4-yl)-2-methyl-7-(4H-1,2,4-triazol-3-yl)benzimidazol-5-yl]-3-fluoropyridin-2-amine] |
| 12 | Cc1nccc(-c2cc(-c3nnc[nH]3)c3nc(C)n(-c4ccnc5c(F)ccc(F)c45)c3c2)n1 [Example 156, 5,8-difluoro-4-(2-methyl-6-(2-methylpyrimidin-4-yl)-4-(4H-1,2,4-triazol-3-yl)-1H-benzo[d]imidazol-1-yl)quinoline] |
| 70 | N#Cc1cc(-c2cc(-c3nnc[nH]3)c3ncn(-c4cc(-c5cn[nH]c5)nc5ccccc45)c3c2)ccn1 [Example 166, 4-(1-(2-(1H-pyrazol-4-yl)quinolin-4-yl)-4-(4H-1,2,4-triazol-3-yl)-1H-benzo[d]imidazol-6-yl)picolinonitrile] |
| 9 | Cc1nc2c(-c3nnc[nH]3)cc(-c3ccnc(N)c3)cc2n1-c1ccnc2c(F)ccc(F)c12 (single isomer, unassigned) [Example 104, 4-(1-(5,8-difluoroquinolin-4-yl)-2-methyl-4-(4H-1,2,4-triazol-3-yl)-1H-benzo[d]imidazol-6-yl)pyridin-2-amine] |
| 8 | CCc1nc2c(-c3nnc[nH]3)cc(-c3ccnc(N)c3F)cc2n1-c1ccnc2cccc(F)c12 [Example 94, 4-[2-ethyl-3-(5-fluoroquinolin-4-yl)-7-(4H-1,2,4-triazol-3-yl)benzimidazol-5-yl]-3-fluoropyridin-2-amine] |
| 3 | Cc1nc2c(-c3nnc[nH]3)cc(-c3ccnc(N)c3F)cc2n1-c1ccnc2c(F)ccc(F)c12 (atropisomer, axis not shown) [Example 106, 4-[3-(5,8-difluoroquinolin-4-yl)-2-methyl-7-(4H-1,2,4-triazol-3-yl)benzimidazol-5-yl]-3-fluoropyridin-2-amine] |
| 31 | Cc1nnc(-c2cc(-c3ccnc(N)c3F)cc3c2nc(C)n3-c2ccnc3c(F)ccc(F)c23)[nH]1 [Example 97, 4-[3-(5,8-difluoroquinolin-4-yl)-2-methyl-7-(5-methyl-4H-1,2,4-triazol-3-yl)benzimidazol-5-yl-]3-fluoropyridin-2-amine] |
| 400 | Cc1nc2c(-c3nnc[nH]3)cc(-c3ccnc(F)c3)cc2n1-c1ccnc2c(F)ccc(F)c12 (single isomer, unassigned) [Example 134, 5,8-difluoro-4-(6-(2-fluoropyridin-4-yl)-2-methyl-4-(4H-1,2,4-triazol-3-yl)-1H-benzo[d]imidazol-1-yl)quinoline] |
| 62 | Cc1cc(-c2cc(-c3nnc[nH]3)c3nc(C)n(-c4ccnc5c(F)ccc(F)c45)c3c2)ncn1 [Example 155, 5,8-difluoro-4-(2-methyl-6-(6-methylpyrimidin-4-yl)-4-(4H-1,2,4-triazol-3-yl)-1H-benzo[d]imidazol-1-yl)quinoline] |
| 200 | Cc1nnc(-c2cc(-c3ccnc(N)c3)cc3c2nc(C2CC2)n3-c2ccnc3c(Cl)ccc(F)c23)[nH]1 [Example 64, 4-[3-(8-chloro-5-fluoroquinolin-4-yl)-2-cyclopropyl-7-(5-methyl-4H-1,2,4-triazol-3-yl)benzimidazol-5-yl]pyridin-2-amine] |
